The source of these data is patent publication US8377875B2, “Therapeutics based on tau/microtubule dynamics” (Ramot at Tel-Aviv University Ltd., priority 2007, dated 2013).

In series [1] the test system is tubulin tyrosination cycle in rat pheochromocytoma cells (PC12). The series is described as follows: Cell-based tubulin tyrosination cycle assay in PC12 cells (confocal microscopy, ELISA). Conditions: 2 hr. In general terms: An ELISA detects its analyte on a solid surface through an enzyme-linked reagent.
Description: Changes in the tubulin tyrosination cycle were used to study the effects of NAP on microtubule dynamics (Gozes and Littauer, Nature. 276:411-413 (1978)). This cycle includes the slow removal of the C-terminal tyrosine of microtubule alpha tubulin, resulting in Glu-tubulin and the fast re-addition of tyrosine (Tyr) to soluble alpha-tubulin in a reaction requiring ATP. […] A cell-based assay for anti-microtubule activity that relies on the properties above allows the identification of both microtubule-destabilizing and microtubule-stabilizing agents. The assay allows assessment of the relative degree of stable microtubule versus dynamic microtubules (Vassal et al., J Biomol Screen, 11: 377-389 (2006)) using confocal microscopy as well as quantitative Enzyme-Linked Immunosorbent Assay (ELISA).
Rat pheochromocytoma cells (PC12) were grown in Dulbecco's modified eagles medium (DMEM) supplemented with 5% fetal bovine serum and 10% donor horse serum 1% penicillin—streptomycin, 1% L-Glutamine (Beit Haemek, Israel) in an atmosphere of 5% CO2 and 95% air at 37° C. […] Cells were seeded on 96, 48 or 24 well plates in 100, 300 or 500 μl of medium volumes respectively and allowed to grow for 48 hr.
In short, medium was aspirated and cells were incubated for 3 min with 100, 300 or 500 μl warm MTSBT (Pipes pH 6.8 80 mM, EGTA 4 mM, MgCl2 1 mM, Triton X-100 0.5% v/v) buffer followed by 6 min with 100, 300 or 500 μl cold methanol (−20° C.). Blocking followed a re-hydration in cold TBST (NaCl 0.15 M, Tris-Cl pH 7.4, Triton X-100 0.1% v/v) followed by 5% non fat milk in TBST 10 min at room temp or −50 μg/ml of Goat IgG in AbDil [TBST+2% bovine serum albumin (Sigma, Rehovot Israel)] 10 min at room temp. For microtubule and nuclear staining, 50 μl (per well) of rat monocloncal antibodies detecting tyrosinated tubulin (YL1/2, Abcam, Cambridge, UK) and rabbit polyclonal antibodies detecting glutaminated tubulin (Abcam, Cambridge, UK) at 1:1000 dilution were added. After a 2 hr (37° C.) incubation the cells were washed twice with TBST or TBS and 50 μl per well of secondary goat anti-rat coupled by Cynine 3—Cy3 (1:1000), Cy2 goat anti rabbit (1:1000) (Jackson ImmunoResearch, West Grove, Pa., U.S.A), and Hoechst 33258 (Sigma) 1 μg/ml were added. Following one hour incubation at 37° C. and 3 washes in TBST or TBS, fluorescence was measured using Tecan Microplate fluorescent reader (Neoteck scientific instrumentation, Switzerland) infinite F200 and Magellan software version 6.3.
For visual inspection, cells were seeded on microscope cover slips, mounted on slides and inspected using confocal microscopy as before (Divinski et al. (2006)). […]
In series [2] the test system is microtubules (tubulin and tau). The series is described as follows: Transmission electron microscopy of microtubules from mixtures of tubulin, tau and NAP. The format is biochemical. The protocol:
FIGS. 3A-E show electron microscopy studies were carried out on mixtures of tubulin, tau, and NAP. […] FIGS. 3A and 3C are 25,000× magnification; FIGS. 3B and 3D are 200,000× magnification. […] Additional electron microscopy studies were carried out on mixtures of NAP (1 pM, lanes 4,5,6. […]), tubulin 6 μM (lanes1,4, FIG. 3E) or 10 μM (lanes 2,3,5,6, FIG. 3E) and tau. Tubulin was obtained from Cytoskeleton (Denver, Colo., USA) and tau (0.7 μM) was purified from recombinant cDNA obtained from Professor Linda Amos (Kar et al., Embo J, 22: 70-77 (2003).). […] The box plot represents 3 different experiments (control vs. NAP-treated). Each experiment consists of either three or four repeats. P<0.001. The density of the microtubules was estimated by counting 20-23 fields in each of the experimental samples.
Transmission electron microscopy was carried out to identify and quantitate microtubule size and appearance in the presence and absence of NAP (in the microtubule pellets described above). Grids were stained with […].

In the next series the target is T1, beta III tubulin (Homo sapiens, UniProt Q13509).
T1 construct: purchased Cytoskeleton (Denver, Colo., USA)
The series can be described thus: Microtubule pelleting assay, western blot with beta III tubulin antibodies. In kind it is biochemical. Conditions: NAP 1 pM, tubulin 10 μM, tau 2.5 μM; vs absence of NAP. How it is done: FIG. 7 illustrates the effect of NAP (1 pM) on beta III tubulin precipitation (10 μM) with tau (2.5 μM) during microtubule (MT) assembly. The experiment was carried out as in FIG. 5, except that beta III antibodies were used. S=supernatant; P=pellet. The reduction of beta III tubulin in the pellet was significant (P<0.05). Beta III tubulin is enriched in neurons (Banerjee et al., J. Biol. Chem. 265: 1794-1799 (1990); Joshi and Cleveland, Cell Motil. Cytoskeleton 16:159-163 (1990)).
Densitometric scanning of the western blots (e.g. FIG. 7) including 8 independent experiments are depicted on the figures. S=supernatant; P=pellet; western blot anti beta III tubulin, 1:1, 400. The reduction reached significance (*P<0.05).
(§1) Tubulin, tau and NAP were prepared as described in Example 1. The microtubule pelleting assay was also carried out as in Example 1.
The resulting pellet was subjected to 12.0% polyacrylamide gel containing SDS (Kar et al. (2003)). Gels were either stained for proteins (Coomassie Brilliant Blue) or subjected to western analysis to specifically identify and quantitate tubulin in the microtubule pellet. […]
In general terms: A western blot detects proteins with antibodies after separation by electrophoresis.

A further series has as its system beta tubulin. The series is described as follows: Microtubule pelleting assay, western blot with TUB2.1 beta tubulin antibody. To be noted: NAP 1 pM, tubulin 10 μM, tau ~2.5 μM; 6 independent experiments. In kind it is biochemical. How it is done:
FIG. 5 illustrates the effect of NAP on beta tubulin precipitation (10 μM) with tau (2.5 μM) during microtubule (MT) assembly. NAP (1 pM) incubation apparently reduces beta tubulin in the microtubule pellet. The monoclonal antibody used (TUB2.1) interacts specifically with beta tubulin species. Gozes and Barnstable, Proc Natl Acad Sci USA, 79: 2579-2583 (1982). Blots were performed as before (Divinski et al., J Neurochem, 98: 973-984 (2006)). S=supernatant; P=pellet.
Densitometric scanning of the western blots (e.g. FIG. 5) including 6 independent experiments are depicted on the figure. S=supernatant; P=pellet; western blot antitubulin 2.1, 1:1, 400.
as §1
The resulting pellet was subjected to 12.0% polyacrylamide gel containing SDS (Kar et al. (2003)). Gels were either stained for proteins (Coomassie Brilliant Blue) or subjected to western analysis to specifically identify and quantitate tubulin in the microtubule pellet. Three different antibodies were used, rabbit anti tubulin (Gozes et al. (1977)), mouse monoclonal antibodies that prefers neuronal beta tubulin species, TUB2.1 (Boss et al., Brain Res, 433:199-218 (1987); Gozes and Barnstable (1982)) and tubulin beta III (neuronal enriched) antibodies as before (Divinski et al. (2006)). […]

Series [3] concerns tubulin. The series is described as follows: Microtubule pelleting assay, western blot with polyclonal tubulin antibodies. In kind it is biochemical. Conditions: NAP 1 pM, tubulin 10 μM, tau ~2.5 μM. How it is done: FIG. 9 illustrates the effect of NAP on tubulin precipitation (10 μM) with tau (2.5 μM) during microtubule (MT) assembly. The experiment was carried out as in FIG. 5, except that polyclonal tubulin antibodies were used. (Gozes et al., FEBS Lett. 73(1):109-14 (1977)).
Densitometric scanning of the western blots (e.g. FIG. 9) including 6 independent experiments are depicted on the figure. S=supernatant; P=pellet; western blot anti tubulin, 1:1, 400-2000.
as §1
The resulting pellet was subjected to 12.0% polyacrylamide gel containing SDS (Kar et al. (2003)). Gels were either stained for proteins (Coomassie Brilliant Blue) or subjected to western analysis to specifically identify and quantitate tubulin in the microtubule pellet. Three different antibodies were used, rabbit anti tubulin (Gozes et al. (1977)), mouse monoclonal antibodies that prefers neuronal beta tubulin species, TUB2.1 (Boss et al., Brain Res, 433:199-218 (1987); Gozes and Barnstable (1982)) and tubulin beta III (neuronal enriched) antibodies as before (Divinski et al. (2006)). Western blotting was performed as before (Divinski et al. (2006)).

Series [4] addresses T2, tau-three microtubule binding domain repeats (Homo sapiens, UniProt P10636).
T2 construct: made in house
The series can be described thus: Dot blot analysis of peptide binding to tau. To be noted: peptide 10^−3M spotted, 2 μM tau. The protocol: For Dot Blot analysis, 5 μl of each sample [vasoactive intestinal peptide VIP (Dangoor et al., Regul Pept, 137: 42-49 (2006)); negative control and NAP 10^−3M) was applied onto the nitrocellulose membrane (Schleicher & Schuell, Dassel, Germany), and was left to dry (2 hr, room temperature). The membrane was further incubated with 2 μM tau-three microtubule binding domain repeats (1.5 hr, room temperature). The non-specific sites were blocked by soaking in a blocking solution (10 mM Tris, 6 mM NaCl, 0.05% Tween 20) that was supplemented with 5% low-fat milk (1 hr at room temperature). The membrane was incubated with primary antibody (tau5 antibody 1:1000), dissolved in 5% milk in blocking solution (12 hours at 4 C). The membrane was then washed three times with the blocking solution (3×10 min), incubated with secondary antibody conjugated with horseradish peroxidase (HRP) (1 hr at room temperature) and washed again three times with blocking solution (10 min×3). The membrane was incubated with ECL reagent (Western blotting detection system; Amersham Biosciences) for 1 min, covered and exposed Biomax Light Film (Kodak, Rochester, N.Y., USA). […]

The next series has as its target tau (Homo sapiens, UniProt P10636). The series is described as follows: Affinity chromatography on NAP-affinity column with tau-specific western blot. In kind it is binding.
In the next series the test system is cell cultures. To be noted: cited from earlier work.
The subject of a further series is normal aging rats. To be noted: intranasal administration; cited from earlier work.
Another series has as its system ischemic injury. To be noted: after ischemic injury; cited from earlier work.
Series [5] has as its system closed head injury in mice. Conditions: cited from earlier work.
The test system of series [6] is model of fetal alcohol syndrome. To be noted: in vivo, ip; cited from earlier work.
The next series relates to tau hyperphosphorylation. To be noted: animal models; cited from earlier work.
Series [7] has as its system tubulin. To be noted: cited from earlier work.
The subject of the next series is microtubule formation. Conditions: cited from earlier work.
The next series concerns NIH 3T3 fibroblasts. Conditions: cited from earlier work.
Series [8] has as its system MAP-2 expression in neuronal cells. Conditions: cited from earlier work.
The conditions of series [9]: in vivo; cited from earlier work.
The test system of series [10] is tubulin. The series is described as follows: Tubulin-NAP binding.
Series [11] deals with mixed neuroglial cultures from newborn rat cortex. The series is described as follows: Neuroprotection against beta-amyloid 1-42 in mixed neuroglial cultures, MAP2 ELISA. The format is cell-based. Conditions: 0.25 μM beta-amyloid 1-42, 5 days, n=10 per data point.

Ends that are not written are not given here.

T2 sequence (P10636 1-410 isoform P10636-5): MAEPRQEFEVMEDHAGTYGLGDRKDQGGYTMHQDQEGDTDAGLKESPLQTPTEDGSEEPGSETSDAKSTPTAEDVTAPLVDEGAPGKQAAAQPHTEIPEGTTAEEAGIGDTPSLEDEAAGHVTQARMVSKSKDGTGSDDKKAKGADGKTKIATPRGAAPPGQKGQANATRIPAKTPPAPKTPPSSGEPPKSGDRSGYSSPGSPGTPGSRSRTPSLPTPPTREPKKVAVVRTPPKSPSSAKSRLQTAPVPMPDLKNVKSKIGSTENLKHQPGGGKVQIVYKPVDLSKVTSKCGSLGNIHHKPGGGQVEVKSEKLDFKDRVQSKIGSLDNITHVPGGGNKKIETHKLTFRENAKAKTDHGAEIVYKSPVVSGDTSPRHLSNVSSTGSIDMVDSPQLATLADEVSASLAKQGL
Chain of tau (P10636 1-441 isoform P10636-8): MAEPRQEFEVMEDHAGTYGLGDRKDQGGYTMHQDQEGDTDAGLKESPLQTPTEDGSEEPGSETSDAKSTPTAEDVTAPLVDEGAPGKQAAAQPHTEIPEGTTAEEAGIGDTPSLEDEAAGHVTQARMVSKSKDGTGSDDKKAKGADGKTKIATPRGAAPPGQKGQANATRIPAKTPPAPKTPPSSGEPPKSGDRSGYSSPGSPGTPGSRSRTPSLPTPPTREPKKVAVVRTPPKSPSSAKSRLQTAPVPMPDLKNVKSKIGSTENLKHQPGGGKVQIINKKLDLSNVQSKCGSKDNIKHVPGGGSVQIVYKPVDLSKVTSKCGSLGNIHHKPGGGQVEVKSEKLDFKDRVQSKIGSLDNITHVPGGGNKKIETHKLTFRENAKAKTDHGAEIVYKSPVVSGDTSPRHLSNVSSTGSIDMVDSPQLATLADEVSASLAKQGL
T1 sequence (Q13509 whole entry): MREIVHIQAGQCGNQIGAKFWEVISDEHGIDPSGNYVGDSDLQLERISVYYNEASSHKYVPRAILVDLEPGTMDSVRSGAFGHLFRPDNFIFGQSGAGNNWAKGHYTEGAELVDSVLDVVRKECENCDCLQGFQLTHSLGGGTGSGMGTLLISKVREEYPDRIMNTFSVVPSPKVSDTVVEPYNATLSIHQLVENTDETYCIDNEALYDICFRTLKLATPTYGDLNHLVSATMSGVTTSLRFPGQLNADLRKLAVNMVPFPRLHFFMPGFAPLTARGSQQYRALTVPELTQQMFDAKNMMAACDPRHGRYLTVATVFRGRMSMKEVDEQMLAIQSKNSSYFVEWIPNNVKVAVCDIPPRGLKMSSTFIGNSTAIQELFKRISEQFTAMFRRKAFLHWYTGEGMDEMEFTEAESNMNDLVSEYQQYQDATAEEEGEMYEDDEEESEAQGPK
T1 sequence (Q71U36 whole entry partner): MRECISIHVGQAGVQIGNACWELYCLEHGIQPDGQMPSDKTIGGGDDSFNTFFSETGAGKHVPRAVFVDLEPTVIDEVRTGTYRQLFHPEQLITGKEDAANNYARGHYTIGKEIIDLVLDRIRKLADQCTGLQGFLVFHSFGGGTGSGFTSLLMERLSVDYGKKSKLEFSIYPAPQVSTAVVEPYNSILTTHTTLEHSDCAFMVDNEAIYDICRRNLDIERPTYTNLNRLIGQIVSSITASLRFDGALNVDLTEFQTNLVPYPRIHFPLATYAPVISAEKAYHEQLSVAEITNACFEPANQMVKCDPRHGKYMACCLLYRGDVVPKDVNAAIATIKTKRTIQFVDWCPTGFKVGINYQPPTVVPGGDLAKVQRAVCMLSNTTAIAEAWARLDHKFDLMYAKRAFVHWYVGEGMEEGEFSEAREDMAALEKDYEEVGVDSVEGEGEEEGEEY

Regarding `CC(=O)O[C@H]1C(=O)[C@@]2(C)[C@H]([C@H](OC(=O)c3ccccc3)[C@]3(O)C[C@H](OC(=O)[C@H](O)[C@@H](NC(=O)c4ccccc4)c4ccccc4)C(C)=C1C3(C)C)[C@]1(OC(C)=O)CO[C@@H]1C[C@@H]2O` [paclitaxel, reference compound], the detyrosinated tubulin result in [1] (paclitaxel 5 μM) was “significantly increased detyrosinated tubulin”.
Consider Asn-Ala-Pro-Val-Ser-Ile-Pro-Gln [NAP], for which, in [2] (NAP 1 pM, tubulin 6 or 10 μM, tau 0.7 μM, vs control w/o NAP), the “microtubule density (electron microscopy)” value is given as “increased microtubule density”. Also, the “curves and microtubule length (electron microscopy)” value in series [2] (NAP-treated samples vs control w/o NAP) is “increases”. Also, the “decrease in tubulin beta III in the microtubule pellet” value with beta III tubulin was “approximately 2 fold”. Further, the “reduction of beta tubulin in the microtubule pellet (TUB2.1 antibody)” value with beta tubulin was “not significant”. The “decrease of tubulin in the microtubule pellet (polyclonal anti-tubulin antibodies)” value in the series on tubulin [3] is reported as “no significant decrease”. Moreover, in series [4], the “binding to tau (dot blot)” value is “can bind directly to tau”. Moreover, in the series with tau, the “binding to tau (affinity chromatography)” value is listed as “binds to tau”. The “dose response for activation of the tyrosination cycle (ELISA)” value in series [1] (10^−19 M—10^−7M) is given as “biphasic dose response curve”. The “activity on the tubulin tyrosination cycle” value in series [1] (NAP 10^−11M) is reported as “not active”. For the same molecule, the “tyrosinated and detyrosinated alpha tubulin” value in series [1] (NAP 10^−15M) is “significantly increased tyrosinated and detyrosinated alpha tubulin”. In addition, the “neuroprotective activity against a wide variety of toxins” value in the series with cell cultures was “neuroprotective activity at femtomolar concentrations”. For the same molecule, in the series on normal aging rats, the “performance in the Morris water maze” value was “improved performance”. Besides, the “infarct volume and motor function deficits” value with ischemic injury is “reduced infarct volume and motor function deficits”. In addition, the “damage caused by closed head injury” value in series [5] is reported as “reducing damage”. Further, the “fetal death after intraperitoneal injection of alcohol” value in series [6] is on record as “inhibited”. Also, in the series with tau hyperphosphorylation, the tau hyperphosphorylation entry was “protected against tau hyperphosphorylation”. Besides, the binding to tubulin entry with tubulin [7] is recorded as “binds tubulin”. The “microtubule formation (turbidity)” value in the series with microtubule formation is given as “stimulate microtubule formation”. In the series with NIH 3T3 fibroblasts, the “interaction with NIH 3T3 fibroblasts or other dividing cells” value is listed as “does not interact”. For the same molecule, in series [8], the MAP-2 expression entry is “increases MAP-2 expression”. Further, the “crossing of the blood-brain barrier” value in [9] was “can cross the blood-brain barrier”.
Take SALLRSIPA [ADNF-9]: the “effect on tubulin-NAP binding” value in the series with tubulin [10] is on record as “diminish tubulin-NAP binding”.
For “TAPVPMPD [a NAP-like, tau-derived peptide]”, the “concentrations at which neuronal survival was enhanced (MAP2 staining)” value in series [11] was 10^−19-10^−9 M.
For the molecule “vasoactive intestinal peptide [VIP, reference compound]”, the “binding to tau (dot blot)” value in [4] is given as “does not interact”.
